Drawing on a melting point compilation (Tetko et al.; mined from patent text by program, amines drawn as free bases though some values may be those of a salt), this text covers melting point for 90 compounds.

As for `O=C1Nc2ccc(-c3cccc(Cl)c3)cc2C1=O`, the melting point lay within 159 to 161 °C.

`CCOC(=O)c1c(CS(=O)(=O)c2nccn2C)nc2cc(OC)c(OC)cc2c1-c1ccc(OC)c(OC)c1` yielded a melting point of 183 to 184 °C.

`CN1C(=O)N(C)C(c2c(C(C)(C)C)cc(O)cc2C(C)(C)C)N(C)C1=O` came in with a melting point of 194 to 196 °C.

On to `COc1ccc2c(=O)[nH]c(=O)[nH]c2c1OC`, for which the melting point fell in the range of 314 to 316 °C.

For `CCCCc1ccc(C(=O)SCC2C(=O)OCC2c2ccccc2)cc1` (stereo not given), the melting point was in the range of 91 to 93 °C.

`COC(=O)COc1c2ccccc2cc2c1c1c(C(N)=O)cccc1n2Cc1ccccc1` gave a melting point of 120 to 125 °C.

Regarding `COc1cc2c(cc1F)C(=Cc1ccc(SC)cc1)C(C)=C2CC(=O)O`, the melting point was in the range of 172 to 174 °C.

Compound `CCOC(=O)COCc1nnc(S)n1C` registered a melting point of 86 to 88 °C.

With `Cc1cc(=O)c2ccc(OCCCCl)cc2o1`, the melting point lay within 113 to 115 °C.

In the case of `CNCCC1CCc2cc(OCc3ccc(-c4ccccc4)cc3)ccc2C1` (stereo not given), the melting point fell in the range of 75 to 76 °C.

Turning to `COc1ccc2cc([C@H](C)C(=O)ON3C(=O)c4ccccc4C3=O)ccc2c1`, the melting point fell in the range of 110 to 112 °C.

Compound `COC(=O)c1cc(Cl)ccc1-n1c(C)nnc1CCl` had a melting point of 123 to 124 °C.

In turn, `CCCCCCc1ccc(OCCCCCC(=O)Nc2ccc(O)cc2)cc1O` gave a melting point of 128 °C.

The compound `O=C(O)CC1(CCCCCCCCCCC2(C(=O)O)CC2)CC1` had a melting point of 71.9 to 74.3 °C.

In turn, `CC(C)(C)OC(=O)N1C(=O)CCC1=O` displayed a melting point of 76 to 78 °C.

Turning to `CC(C)(C)Nc1c([N+](=O)[O-])cnc2ccccc12`, the melting point fell in the range of 106 to 108 °C.

Compound `COCOCc1ccccc1C1Cn2cc(C(=O)NCc3ccc(Cl)cc3)c(=O)c3cc(CN4CCOCC4)cc(c32)O1` (stereo not given) displayed a melting point of 202 to 204 °C.

On to `CCN1C[C@@H](O)[C@H](NC2CCCCC2)C1` (relative stereo), for which the melting point lay within 68 to 71 °C.

As for `CCCCOC(=O)NCC(=O)NCC1C2CCC(O2)C1CC=CCCCC(=O)O` (stereo not given), the melting point lay in the range of 104 to 106 °C.

Turning to `COc1ccc(S(=O)(=O)C2(C(=O)NO)CCN(CCCOc3ccccc3)CC2)cc1`, the melting point is 101 °C.

Take `N#Cc1nn(-c2c(Cl)cc(C(F)(F)F)cc2Cl)cc1C(=O)C1CC1`: the melting point is 195 to 197 °C.

On to `CC(C)Oc1ccc(CCCCOc2cc(CCC(=O)O)n(C(C)C)n2)c(Oc2ncc(C(F)(F)F)cc2Cl)c1`, for which the melting point fell in the range of 99.5 to 100 °C.

In turn, `O=C(O)C1CCCN(CCC#Cc2ccccc2)C1` (stereo not given) yielded a melting point of 150 to 151 °C.

Regarding `CCSc1ccc(C(=O)O)c(C(F)(F)F)c1`, the melting point worked out at 134 °C.

Turning to `O=C1c2c(Cl)cccc2-n2cnc(-c3nc(C4CCC4)no3)c2[C@@H]2CCCN12`, the melting point lay in the range of 183 to 185 °C.

Take `CCON=C(C(=O)OC)c1nccc(N)n1`: the melting point fell in the range of 105 to 110 °C.

`COc1ccc2[nH]c3c(C(=O)Nc4ccc(CCCCN(C)Cc5ccc(OC)c(OC)c5)cc4)cccc3c(=O)c2c1`: the melting point worked out at 172 °C.

With `CC(C)(CO)c1ccc(Cl)cc1`, the melting point is 46 to 48 °C.

In turn, `O=C(Cn1c(-c2ccccc2)ncc(NS(=O)(=O)c2ccccc2)c1=O)NC(Cc1ccccc1)C(=O)C(F)(F)F` (stereo not given) showed a melting point of 92 to 94 °C.

For `O=c1cc(-c2ccc(O)cc2)oc2ccccc12`, the melting point fell in the range of 177 to 180 °C.

With `CCNC1(c2ccccc2Cl)C(=O)N(Cc2ccc(C(=O)NC(C)(C)C)cc2)c2ccc(Cl)cc21` (stereo not given), the melting point is 190 to 195 °C.

The compound `O=c1c2c(Cl)cc(Cl)cc2n(Cc2ccccc2)c(=O)n1CC1CCCCC1` had a melting point of 147 to 149 °C.

`Cn1c(-c2ccc(OCC(O)CNC(C)(C)C)cc2)cc2ccccc2c1=O` (stereo not given) gave a melting point of 130 to 132 °C.

Compound `O=C1Nc2cc(Cl)ccc2C(=O)C1c1cc2ccccc2o1` (stereo not given) gave a melting point of 342 °C.

Regarding `CCCCNc1c(N)c(N)nc(C)c1C(=O)OCC`, the melting point fell in the range of 82 to 83 °C.

`C#Cc1cnc(OCCOc2ncnc(NS(=O)(=O)c3ccc(C(C)(C)C)cc3)c2-c2ccc(C)cc2)nc1` came in with a melting point of 207 to 210 °C.

The compound `FC(F)(F)c1ccc(COc2ccnc(CCl)c2)cc1` showed a melting point of 133 to 135 °C.

The compound `CC(=O)NC[C@H]1CN(c2ccc(N3CCN(c4ccc(C=O)o4)CC3)c(F)c2)C(=O)O1` showed a melting point of 176 °C.

In turn, `CCc1c2c(nn1-c1ccccc1)c(Cl)nc1ccccc12` displayed a melting point of 207 to 209 °C.

`O=c1[nH]nc(-c2ccc(C(F)(F)F)cc2)o1` came in with a melting point of 214 to 216 °C.

Turning to `Nc1cc2c(cc1Cl)N1CCCN=C1C2=O`, the melting point was greater than 270 °C.

`COc1ccc(C=NNC(=O)c2ccc(O)cc2)cc1`: the melting point was 209 °C.

As for `Cc1cccc(NC(=O)NCC(=O)N(CC(=O)OC(C)(C)C)c2ccc(Cl)cc2)c1`, the melting point was 125 °C.

Regarding `COc1cnccc1CCCOc1cccnc1Oc1cccc(Br)c1`, the melting point was 134 to 136 °C.

For `CCCCCCC(C)(C)c1ccc(C2=CC(=O)CCC2)c(O)c1`, the melting point is 122 to 123 °C.

`CCCC1CCC(C2CCc3c4c(c(F)c(F)c3O2)OCCC4)CC1` (stereo not given) came in with a melting point of 152 °C.

`CC(O)(CC(=O)O)c1ccc(-c2ccc(Br)cc2Br)cc1` (stereo not given) had a melting point of 118 to 120 °C.

`OCC1(c2ccccc2)CCCC1` registered a melting point of 41 to 44 °C.

Take `Cc1cc2cc(/C(=C\CO)c3ccc(I)cc3)ccc2o1`: the melting point fell in the range of 103 to 113 °C.

With `O=C1C(Cc2ccccc2)NC(=S)N1c1nc(C(F)(F)F)cs1` (stereo not given), the melting point was 187 to 189 °C.

Compound `Cc1cc(C)c(NC(=O)N(Cc2cc3ccccc3c3ccccc23)C2CCCCC2)c(C)c1` gave a melting point of 125 to 128 °C.

`CC(=O)C1=C(C)NC(=O)N(C(C)=O)C1c1ccccc1` (stereo not given) showed a melting point of 181 to 183 °C.

In turn, `CCCCCCCCC(=O)OCC(O)COC(=O)CCCCCCCC` returned a melting point of 30 to 31 °C.

The compound `CC1=CC(c2cccc(Cl)c2Cl)C(c2nnco2)=C(C)N1` (stereo not given) came in with a melting point of 235 °C.

The compound `CCCn1c(=O)c(-c2ccccc2)c2n(c1=O)CCCS2(=O)=O` showed a melting point of 179 to 180 °C.

Turning to `COc1cc(C(=O)O)ccc1Cc1c(Cl)n(C)c2ccc(CC(C)NC(=O)N(C)C)cc12` (stereo not given), the melting point lay in the range of 171 to 173 °C.

With `Cc1cnc(-c2cc(C(F)(F)F)nn2C)nc1Oc1cc(C(F)(F)F)nn1C`, the melting point turned out to be 113 °C.

Consider `CCCCC(=O)Nc1ccc(C2=N[C@H]3CCN(C)C[C@H]3c3cc(OC)c(OC)cc32)cc1` (relative stereo), for which the melting point fell in the range of 230 to 235 °C.

On to `COC(=O)NN=Cc1ccccc1N`, for which the melting point is 149 to 150 °C.

As to `O=C(Oc1ccccc1)N1CCC2(CC1)c1ccccc1Oc1ccccc12`, the melting point is 105 to 107 °C.

In turn, `O=[N+]([O-])c1cc2c(c(Cl)c1OCc1ccccc1)CCCC2` registered a melting point of 80 to 82 °C.

In turn, `CN1C(=O)C(NC(=O)Nc2ccc(Cl)c(Cl)c2)N=C(c2ccccc2)c2ccccc21` (stereo not given) gave a melting point of 274 to 276 °C.

`Cc1cc(Br)ccc1-n1c(CF)nc2ccc([N+](=O)[O-])cc2c1=O`: the melting point was 208 to 210 °C.

Compound `O=C(NCCN1CCN(c2ncccn2)CC1)NC12CC3CC(CC(C3)C1)C2` had a melting point of 170 to 171 °C.

`NC(=S)NCc1cn(-c2ccc(N3CCOCC3)c(F)c2)nn1` displayed a melting point of 192 °C.

As for `CCOC(=O)c1ncc2[nH]c3ccc(NC(C)=O)cc3c2c1C`, the melting point lay within 273 to 278 °C.

The compound `CC(O)c1cccc(-c2ccc3nc(-c4ccc(Cl)cc4)cn3c2)c1F` (stereo not given) had a melting point of 193 to 195 °C.

`CC=Cn1c(C(O)(c2ccc(Cl)cc2)c2ccc(Cl)cc2)nc(C)c1C`: the melting point was 127 to 128 °C.

Compound `CON=C(C#N)c1ccccc1S(N)(=O)=O` had a melting point of 82 to 90 °C.

`CC(O)C(C)(C)c1cc(Cn2cncn2)cc(C(C)(C)C#N)c1` (stereo not given) yielded a melting point of 83 to 84 °C.

`CCN(CC)C(=O)c1cc(-c2ccc(C)cc2)nc2ccccc12` registered a melting point of 52 °C.

With `Oc1c(Cl)cc(C2=NCCO2)cc1Cl`, the melting point fell in the range of 189 to 191 °C.

`COC(=O)c1ccc(C(=O)CC(=O)OCc2ccccc2)cc1` had a melting point of 71 °C.

For the compound `CC(C)(C)OC(=O)N[C@H]1CCN(c2nc3c(cc2F)c(=O)c(C(=O)O)cn3C2CC2)C1`, the melting point lay within 247 to 249 °C.

Take `CCOc1ccccc1C=[N+]([O-])C1CCCC1`: the melting point is 87.3 °C.

Consider `O=C(NCCC[PH](=O)O)OCc1ccccc1`, for which the melting point is 53 to 55 °C.

`Cc1ccc(N[C@H](Cc2c[nH]c3ccccc23)C(=O)O)cc1`: the melting point was 146 to 148 °C.

On to `CCN1CC(OCC=C(C)C)(C(F)(F)F)c2cc(Cl)ccc2NC1=O` (stereo not given), for which the melting point was in the range of 158 to 160 °C.

`O=C(O)C1CC(Cl)=C(c2ccccc2)CC1C(=O)O` (stereo not given) returned a melting point of 82 to 90 °C.

Take `CC(C)OC(=O)c1ccc(=O)n(CCNC(=O)c2cccnc2)c1`: the melting point lay within 160 to 161 °C.

Regarding `Cc1c(C)c2c(c(C)c1O)CC[C@@](C)(CCO)O2`, the melting point was determined as 155 °C.

With `COc1ccc(OCC2(Cc3c(C)nc(OC)c(C(C)C)c3C(=O)c3cc(C)cc(C#N)c3)CC2)cc1`, the melting point lay within 179 to 180 °C.

Take `COC(=O)C1CCCn2c(C(=O)c3ccc(F)cc3)ccc21` (stereo not given): the melting point was in the range of 78 to 79 °C.

For `OCC1OC(OC2C(CO)OC(CO)C2O)C(O)C(O)C1O` (stereo not given), the melting point was 162 to 164 °C.

`OCc1ccc(-c2csc(-c3cn([C@H]4CN5CCC4CC5)nn3)c2)cc1` registered a melting point of 196 °C.

Compound `C1=C(c2coc3ccccc23)N2CCCN=C2S1` had a melting point of 128 to 130 °C.

On to `CCCN1CCC23c4cccc(OC)c4OC2C2CCC3(C1=O)C(C(=O)OC)C2` (stereo not given), for which the melting point lay in the range of 126 to 128 °C.

As to `O=C(NC1CCC(OC(=O)N2CCC3(CCCC3)CC2)CC1)C1CCN(C(=O)Oc2ccc(Oc3ccccc3)cc2)CC1` (stereo not given), the melting point was in the range of 230 to 231 °C.

As to `CC(=O)N1CCCC2=C1CCc1cccc(Cl)c12`, the melting point lay in the range of 117 to 118 °C.

The compound `CCn1cc(C(=O)O)c(=O)c2cc(F)c(N[C@@H]3CCC[C@@H]3N)cc21` (relative stereo) had a melting point of 233 to 235 °C.

As usually defined, the melting point is the temperature, or range, at which the solid turns liquid.
